Among the data in article PMC6934184, “Selective DNA-PKcs inhibition extends the therapeutic index of localized radiotherapy and chemotherapy” (The Journal of Clinical Investigation, 2019) are inhibition values, retold here.

Structures are written as SMILES.

The assay has as its target T1, STK17A (DRAK1) (Homo sapiens, UniProt Q9UEE5).
T1 construct: purchased Thermo Fisher Scientific (Life Technologies) SelectScreen
Briefly: SelectScreen LanthaScreen. The assay is classed as binding. To be noted: read-out: % displacement. The method, boiled down: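 NU5455 was profiled across the SelectScreen Broad panel of kinase activity and binding assays. Z'LYTE reactions such as CSF1R ran at apparent Km ATP, while the Adapta CAMK1 assay used ATP listed as 10. Values are given as percent.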
In general terms: TR-FRET usually uses a lanthanide donor and a delayed reading to cut background.

T1 sequence (Q9UEE5 whole entry): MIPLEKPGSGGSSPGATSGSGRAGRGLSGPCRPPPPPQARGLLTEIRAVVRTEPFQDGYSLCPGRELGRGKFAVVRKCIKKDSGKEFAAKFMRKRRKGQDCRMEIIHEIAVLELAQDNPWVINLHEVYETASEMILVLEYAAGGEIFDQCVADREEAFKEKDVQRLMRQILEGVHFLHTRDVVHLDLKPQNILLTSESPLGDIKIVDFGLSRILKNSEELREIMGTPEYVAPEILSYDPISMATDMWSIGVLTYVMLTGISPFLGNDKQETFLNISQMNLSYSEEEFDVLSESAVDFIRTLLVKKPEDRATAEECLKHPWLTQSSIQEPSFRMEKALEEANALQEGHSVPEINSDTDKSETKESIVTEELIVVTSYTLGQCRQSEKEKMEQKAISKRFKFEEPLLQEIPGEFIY

As to `CN(C(=O)CN1CCOCC1)c1ccc2sc3c(-c4cccc5c(=O)cc(N6CC7CCC(C6)O7)oc45)cccc3c2c1` [NU5455], the inhibition at 1 µM is -6.6%.
